Results: publication PMC4303209, “A novel phosphatidylinositol 3-kinase (PI3K) inhibitor directs a potent FOXO-dependent, p53-independent cell cycle arrest phenotype characterized by the differential induction of a subset of FOXO-regulated genes” (Breast Cancer Research : BCR, 2014)

Tested on: MCF-7 breast cancer cells
Assay: Microarray gene expression analysis (Agilent whole human genome 4 x 44K; compound vs DMSO, LIMMA log2 fold change)
Format: cell-based

With `Cn1ncc2c(N3CCOCC3)nc(-c3cccc(O)c3)nc21` [ETP-45658] the “PRNP log2FC” value was 0.370, the log2FC was 0.370 and the “AARS log2FC” value (Apoptosis genes, Gene 16) was -0.198. The “ABL1 log2FC” value (Apoptosis genes, Gene 25) was -0.156, the “ABR log2FC” value (Apoptosis genes, Gene 29) was -0.380 and the “ACTN4 log2FC” value (Apoptosis genes, Gene 81) was -0.260. For the same compound, the “ACTN1 log2FC” value (Apoptosis genes, Gene 87) was -0.609, the “ACTN2 log2FC” value (Apoptosis genes, Gene 88) was 0.099 and the “ACTN3 log2FC” value (Apoptosis genes, Gene 89) was -0.693. For the same compound, the “ACVR1 log2FC” value (Apoptosis genes, Gene 90) was 0.534, the “ACVR1B log2FC” value (Apoptosis genes, Gene 91) was -0.563 and the “ADA log2FC” value (Apoptosis genes, Gene 100) was -0.213. For the same compound, the “ADAM8 log2FC” value (Apoptosis genes, Gene 101) was -0.364, the “ADAR log2FC” value (Apoptosis genes, Gene 103) was -0.197 and the “ADCYAP1 log2FC” value (Apoptosis genes, Gene 116) was 0.068. The “ADD1 log2FC” value (Apoptosis genes, Gene 118) was -0.295, the “ADM log2FC” value (Apoptosis genes, Gene 133) was -0.856 and the “ADORA1 log2FC” value (Apoptosis genes, Gene 134) was -2.012. For the same compound, the “ADORA2A log2FC” value (Apoptosis genes, Gene 135) was -0.309, the “ADRB1 log2FC” value (Apoptosis genes, Gene 153) was -0.090 and the “AES log2FC” value (Apoptosis genes, Gene 166) was -0.293. For the same compound, the “AGT log2FC” value (Apoptosis genes, Gene 183) was -0.104, the “AHR log2FC” value (Apoptosis genes, Gene 196) was 0.995 and the “AKT1 log2FC” value (Apoptosis genes, Gene 207) was -0.608. For the same compound, the “AKT2 log2FC” value (Apoptosis genes, Gene 208) was -0.554, the “ALDH1A3 log2FC” value (Apoptosis genes, Gene 220) was 0.149 and the “ALDOC log2FC” value (Apoptosis genes, Gene 230) was -0.120. The “ALK log2FC” value (Apoptosis genes, Gene 238) was -0.050, the “ALOX15B log2FC” value (Apoptosis genes, Gene 247) was -0.102 and the “ANGPT1 log2FC” value (Apoptosis genes, Gene 284) was -0.676. The “SLC25A4 log2FC” value (Apoptosis genes, Gene 291) was -0.331, the “SLC25A5 log2FC” value (Apoptosis genes, Gene 292) was 0.173 and the “ANXA1 log2FC” value (Apoptosis genes, Gene 301) was 0.991. The “ANXA4 log2FC” value (Apoptosis genes, Gene 307) was 0.463, the “ANXA5 log2FC” value (Apoptosis genes, Gene 308) was 0.266 and the “APAF1 log2FC” value (Apoptosis genes, Gene 317) was 0.550. For the same compound, the “NUDT2 log2FC” value (Apoptosis genes, Gene 318) was 0.291, the “APBB2 log2FC” value (Apoptosis genes, Gene 323) was -0.357 and the “APC log2FC” value (Apoptosis genes, Gene 324) was 0.117. The “BIRC3 log2FC” value (Apoptosis genes, Gene 330) was -0.843, the “BIRC5 log2FC” value (Apoptosis genes, Gene 332) was 0.154 and the “APLP1 log2FC” value (Apoptosis genes, Gene 333) was -0.281. For the same compound, the “APOE log2FC” value (Apoptosis genes, Gene 348) was -0.224, the “APP log2FC” value (Apoptosis genes, Gene 351) was 0.379 and the “FASLG log2FC” value (Apoptosis genes, Gene 356) was -0.198. For the same compound, the “AQP2 log2FC” value (Apoptosis genes, Gene 359) was -0.102, the “AR log2FC” value (Apoptosis genes, Gene 367) was 0.203 and the “ARAF log2FC” value (Apoptosis genes, Gene 369) was -0.542. For the same compound, the “ARF6 log2FC” value (Apoptosis genes, Gene 382) was -0.682, the “RHOB log2FC” value (Apoptosis genes, Gene 388) was -0.133 and the “ARHGAP4 log2FC” value (Apoptosis genes, Gene 393) was -0.218. The “ARHGDIA log2FC” value (Apoptosis genes, Gene 396) was -1.118, the “ARRB2 log2FC” value (Apoptosis genes, Gene 409) was 0.237 and the “ASCL1 log2FC” value (Apoptosis genes, Gene 429) was -0.107. The “ASNS log2FC” value (Apoptosis genes, Gene 440) was -0.404, the “ATF4 log2FC” value (Apoptosis genes, Gene 468) was 0.324 and the “ATM log2FC” value (Apoptosis genes, Gene 472) was 0.117. For the same compound, the “ATP2A1 log2FC” value (Apoptosis genes, Gene 487) was 0.239, the “AVP log2FC” value (Apoptosis genes, Gene 551) was -0.579 and the “AXL log2FC” value (Apoptosis genes, Gene 558) was -0.230. For the same compound, the “AZU1 log2FC” value (Apoptosis genes, Gene 566) was -0.123, the “BAD log2FC” value (Apoptosis genes, Gene 572) was 0.276 and the “BAG1 log2FC” value (Apoptosis genes, Gene 573) was 1.170. For the same compound, the “BAK1 log2FC” value (Apoptosis genes, Gene 578) was -0.356, the “BARD1 log2FC” value (Apoptosis genes, Gene 580) was 0.487 and the “BAX log2FC” value (Apoptosis genes, Gene 581) was -0.255. The “BCL2 log2FC” value (Apoptosis genes, Gene 596) was -0.310, the “BCL2A1 log2FC” value (Apoptosis genes, Gene 597) was -0.192 and the “BCL2L1 log2FC” value (Apoptosis genes, Gene 598) was -0.991. The “BCL2L2 log2FC” value (Apoptosis genes, Gene 599) was 0.428, the “BCL3 log2FC” value (Apoptosis genes, Gene 602) was -0.569 and the “BCL6 log2FC” value (Apoptosis genes, Gene 604) was 0.771. The “BDNF log2FC” value (Apoptosis genes, Gene 627) was -0.132, the “BID log2FC” value (Apoptosis genes, Gene 637) was -0.095 and the “BIK log2FC” value (Apoptosis genes, Gene 638) was -0.815. The “BLM log2FC” value (Apoptosis genes, Gene 641) was 0.293, the “BMP4 log2FC” value (Apoptosis genes, Gene 652) was 0.407 and the “BMP7 log2FC” value (Apoptosis genes, Gene 655) was -0.344. For the same compound, the “BMPR1B log2FC” value (Apoptosis genes, Gene 658) was -0.091, the “BMX log2FC” value (Apoptosis genes, Gene 660) was 0.114 and the “BNIP1 log2FC” value (Apoptosis genes, Gene 662) was 0.672. For the same compound, the “BNIP2 log2FC” value (Apoptosis genes, Gene 663) was 0.527, the “BNIP3 log2FC” value (Apoptosis genes, Gene 664) was 0.774 and the “BNIP3L log2FC” value (Apoptosis genes, Gene 665) was 1.085. The “FOXL2 log2FC” value (Apoptosis genes, Gene 668) was -0.812, the “BRCA1 log2FC” value (Apoptosis genes, Gene 672) was 0.792 and the “BRAF log2FC” value (Apoptosis genes, Gene 673) was -0.105. The “BRCA2 log2FC” value (Apoptosis genes, Gene 675) was 0.092, the “BTC log2FC” value (Apoptosis genes, Gene 685) was 0.205 and the “BTG1 log2FC” value (Apoptosis genes, Gene 694) was 1.142. The “BUB1 log2FC” value (Apoptosis genes, Gene 699) was 0.803, the “BUB1B log2FC” value (Apoptosis genes, Gene 701) was 0.344 and the “TSPO log2FC” value (Apoptosis genes, Gene 706) was -0.089. For the same compound, the “C5AR1 log2FC” value (Apoptosis genes, Gene 728) was 0.064, the “CACNA1A log2FC” value (Apoptosis genes, Gene 773) was -0.187 and the “CALR log2FC” value (Apoptosis genes, Gene 811) was -0.081. For the same compound, the “CAMK2B log2FC” value (Apoptosis genes, Gene 816) was -0.123, the “CAST log2FC” value (Apoptosis genes, Gene 831) was 0.572 and the “CASP1 log2FC” value (Apoptosis genes, Gene 834) was 0.048. For the same compound, the “CASP2 log2FC” value (Apoptosis genes, Gene 835) was -0.918, the “CASP3 log2FC” value (Apoptosis genes, Gene 836) was 0.546 and the “CASP4 log2FC” value (Apoptosis genes, Gene 837) was 0.181. The “CASP5 log2FC” value (Apoptosis genes, Gene 838) was -0.128, the “CASP6 log2FC” value (Apoptosis genes, Gene 839) was 0.574 and the “CASP7 log2FC” value (Apoptosis genes, Gene 840) was -0.211. For the same compound, the “CASP8 log2FC” value (Apoptosis genes, Gene 841) was 0.613, the “CASP9 log2FC” value (Apoptosis genes, Gene 842) was 0.372 and the “CASR log2FC” value (Apoptosis genes, Gene 846) was 0.039. The “CAT log2FC” value (Apoptosis genes, Gene 847) was 0.577, the “CAV1 log2FC” value (Apoptosis genes, Gene 857) was 0.205 and the “RUNX3 log2FC” value (Apoptosis genes, Gene 864) was -0.494. The “CBL log2FC” value (Apoptosis genes, Gene 867) was 0.301, the “CBS log2FC” value (Apoptosis genes, Gene 875) was -0.275 and the “KRIT1 log2FC” value (Apoptosis genes, Gene 889) was 0.668. For the same compound, the “CCNG1 log2FC” value (Apoptosis genes, Gene 900) was 0.908, the “CD2 log2FC” value (Apoptosis genes, Gene 914) was -0.352 and the “CD3E log2FC” value (Apoptosis genes, Gene 916) was -0.399. For the same compound, the “CD3G log2FC” value (Apoptosis genes, Gene 917) was -0.295, the “CD5 log2FC” value (Apoptosis genes, Gene 921) was -0.055 and the “CD5L log2FC” value (Apoptosis genes, Gene 922) was -0.110. For the same compound, the “CD14 log2FC” value (Apoptosis genes, Gene 929) was -0.514, the “CD28 log2FC” value (Apoptosis genes, Gene 940) was 0.087 and the “CD40 log2FC” value (Apoptosis genes, Gene 958) was -0.420. The “CD44 log2FC” value (Apoptosis genes, Gene 960) was -0.380, the “CD59 log2FC” value (Apoptosis genes, Gene 966) was 0.286 and the “CD74 log2FC” value (Apoptosis genes, Gene 972) was -0.135. The “CDC34 log2FC” value (Apoptosis genes, Gene 997) was 0.349, the “CDC42 log2FC” value (Apoptosis genes, Gene 998) was 0.143 and the “CDK4 log2FC” value (Apoptosis genes, Gene 1019) was 0.113. For the same compound, the “CDKN1A log2FC” value (Apoptosis genes, Gene 1026) was -1.401, the “CDKN1B log2FC” value (Apoptosis genes, Gene 1027) was 1.129 and the “CDKN2A log2FC” value (Apoptosis genes, Gene 1029) was 0.240. The “CDKN2D log2FC” value (Apoptosis genes, Gene 1032) was 0.891, the “CEBPB log2FC” value (Apoptosis genes, Gene 1051) was -0.358 and the “CFL1 log2FC” value (Apoptosis genes, Gene 1072) was -0.261. The “CTSC log2FC” value (Apoptosis genes, Gene 1075) was -0.466, the “CGB log2FC” value (Apoptosis genes, Gene 1082) was -0.136 and the “CLU log2FC” value (Apoptosis genes, Gene 1191) was -0.261. For the same compound, the “CLN3 log2FC” value (Apoptosis genes, Gene 1201) was -0.330, the “CCR7 log2FC” value (Apoptosis genes, Gene 1236) was 0.098 and the “PLK3 log2FC” value (Apoptosis genes, Gene 1263) was -1.808. The “CNR1 log2FC” value (Apoptosis genes, Gene 1268) was 0.800, the “ATF2 log2FC” value (Apoptosis genes, Gene 1386) was 0.857 and the “CRH log2FC” value (Apoptosis genes, Gene 1392) was 0.120. The “CRIP1 log2FC” value (Apoptosis genes, Gene 1396) was 0.282, the “CRYAA log2FC” value (Apoptosis genes, Gene 1409) was -0.057 and the “CRYAB log2FC” value (Apoptosis genes, Gene 1410) was -0.139. For the same compound, the “MAPK14 log2FC” value (Apoptosis genes, Gene 1432) was -0.291, the “CSE1L log2FC” value (Apoptosis genes, Gene 1434) was 0.841 and the “CSF2 log2FC” value (Apoptosis genes, Gene 1437) was -0.666. The “CSNK2A1 log2FC” value (Apoptosis genes, Gene 1457) was -0.545, the “CSNK2A2 log2FC” value (Apoptosis genes, Gene 1459) was 0.183 and the “CSTB log2FC” value (Apoptosis genes, Gene 1476) was 0.083. For the same compound, the “NKX2-5 log2FC” value (Apoptosis genes, Gene 1482) was -0.753, the “CTGF log2FC” value (Apoptosis genes, Gene 1490) was -0.597 and the “CTH log2FC” value (Apoptosis genes, Gene 1491) was 0.708.
